The values below are quoted from earlier work in PMC11956011, “An Amazing 30-Year Journey around the DABO Family: A Medicinal Chemistry Lesson on a Versatile Class of Non-nucleoside HIV-1 Reverse Transcriptase Inhibitors” (Journal of Medicinal Chemistry, 2025).

Data set [1] deals with HIV-1. Set-up: method as in PMID 5787520. The following applies: 3.5 μM; MoI = 5 CCID50/cell; 40 days.
A further data set deals with V106A HIV-1 RT. To be noted: Fig 4.
Data set [2] deals with HIV-1 RT (WT, recombinant). To be noted: Fig 4.
In data set [3] the test system is HIV-1. Further details: method as in PMID 8602869. The following applies: day 3 and 4 p.i.; read-out: p24 inhibition in PBMC-infected cells IC50.
Data set [4] deals with HIV-1. Further details: method as in PMID 8602869. The following applies: read-out: syncytia reduction assay in MT-2-infected cells IC50.
Data set [5] relates to E138K HIV-1 mutant strain. The following applies: Fig 12, in brackets.
Details of data set [6]: method as in doi:10.1039/c3md00247k. The following applies: mouse models.
On the set-up of data set [7]: method as in doi:10.1039/c3md00247k, PMID 21752202. To be noted: in vivo.
For another data set, the system named is R88703-R-IIIB (Y181C). Further details: method as in PMID 9748354, PMID 9554867. The following applies: read-out: p24 inhibition in MT-4 infected cells, IC90: R88703-R-IIIB (Y181C).
For the next data set, the system named is Y181C HIV-1 RT. Further details: method as in PMID 9748354, PMID 9554867.
Another data set has as its system Y188H HIV-1 RT. Set-up: method as in PMID 9748354, PMID 9554867.
The next data set has as its system DLV-R-MF (P236L). Further details: method as in PMID 9748354, PMID 9554867. The following applies: read-out: p24 inhibition in MT-4 infected cells, IC90: DLV-R-MF (P236L).
Another data set deals with DLV-R-IIIB (L100I). Set-up: method as in PMID 9748354, PMID 9554867. To be noted: read-out: p24 inhibition in MT-4 infected cells, IC90: DLV-R-IIIB (L100I).
In the next data set the test system is HIV-1 IIIB. Further details: method as in PMID 9748354, PMID 9554867. To be noted: read-out: p24 inhibition in MT-4 infected cells, IC90: IIIB.
Another data set concerns L-697661-R-IIIB (Y181C). Further details: method as in PMID 9748354, PMID 9554867. The following applies: read-out: p24 inhibition in MT-4 infected cells, IC90: L-697661-R-IIIB (Y181C).
The subject of another data set is P236L HIV-1 RT. Set-up: method as in PMID 9748354, PMID 9554867.
The test system of a further data set is E233V HIV-1 RT. Set-up: method as in PMID 9748354, PMID 9554867.

Each structure is given as a SMILES string. pEC50, pIC50, pKi: −log10 of the molar value. Read-outs that look alike come from different tables or passages of the source. A value given as a limit tells only on which side of the number the result lay.

`Cc1c(C(C)c2c(F)cccc2F)nc(N(C)C)[nH]c1=O` (racemic) [compound 116]: the “water solubility (in words)” value is “scant water solubility”. For the same molecule, the “HIV-1 replication in acutely infected cultures after 4 h treatment” value with HIV-1 [1] is on record as “totally suppressed HIV-1 replication”.

Regarding `O=c1cc(Cc2ccccc2)nc(NCCCCO)[nH]1` [compound 23, 6-benzyl-N^2-(4-hydroxybutyl)isocytosine], the negative-log Ki (pKi) at V106A HIV-1 RT was 4.12; at L100I HIV-1 RT (Fig 4) it was 3.28; in data set [2], 3.85.

With `Nc1cc(Cl)nc(SCc2ccccc2)n1` [compound 19, 4-amino-2-(benzylthio)-6-chloropyrimidine], the pIC50 in the data set on HIV-1 [3] was 6.00 to 7.00; with HIV-1 [4], 5.40 to 6.40; in [2] (read-out: RT assay IC50) it was 4.10 to 4.30. Moreover, the “cytotoxicity in MT-2-infected cells” value in the data set on MT-2 cells is more than 16 µM. The “cytotoxicity in PBMC-infected cells” value with PBMC is more than 16 µM.

For `Cc1c(C(C#N)c2c(F)cccc2F)nc(SC(C)C)[nH]c1=O` (stereo not shown) [compound 153], in data set [5], the “Fold-resistance E138K (EC50 vs HIV-1IIIB)” value is 2.4. Also, the “oral bioavailability (in words)” value in data set [6] was “optimal oral bioavailability”. Further, in data set [7], the “acute toxicity (in words)” value is recorded as “without acute toxicity”.

Consider `C[C@H](Sc1nc(N)cc(Cl)n1)c1cc2ccoc2cn1` [compound 21, (−)-6-chloro-2-[(1-furo[2,3-c]pyridin-5-ylethyl)thio]-4-pyrimidinamine], for which the IC90 is 170 nM in the data set with R88703-R-IIIB (Y181C); 8 nM with DLV-R-MF (P236L); 70 nM in the data set on DLV-R-IIIB (L100I); 1 nM in the data set on HIV-1 IIIB; 1100 nM in the data set on L-697661-R-IIIB (Y181C). Also, the pIC50 was 6.75 in the data set on Y181C HIV-1 RT; 7.11 in the data set with Y188H HIV-1 RT; 7.41 in the data set on L100I HIV-1 RT; 7.66 with P236L HIV-1 RT; 7.70 in data set [2] (read-out: RT assay, IC50: WT); 7.77 in the data set with E233V HIV-1 RT.

As to `CCCN(C)c1nc(C(C)c2c(F)cccc2F)c(C)c(=O)[nH]1` (stereo not shown) [compound 119], the pEC50 in the data set with HIV-2ROD was 5.07.
